According to PubChem BioAssay AID256 (DTP/NCI, 2004):
Inconclusive results and toxic doses are left out. Rule for the calls: active = survival T/C of 150% or more; inactive = T/C below 125% in these data.

Tested on: CD2F1 mice, L1210 leukemia ip, survival T/C
Assay: NCI In Vivo Anticancer Drug Screen. Data for tumor model L1210 Leukemia (intraperitoneal) in CD2F1 (CDF1) mice
Conditions: higher = longer survival
In short: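 Ratio T/C, where T is the treated-group value and C the vehicle-dosed control value, from mice implanted with a transplantable tumor.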

[1] = endpoint: mean survival time, dose: 100.0 mg/kg/injection, schedule: Q01DX009 (ip), vehicle: saline with Tween-80
[2] = endpoint: mean survival time, dose: 100.0 mg/kg/injection, schedule: Q04DX003 (ip), vehicle: saline with Tween-80
[3] = endpoint: mean survival time, dose: 200.0 mg/kg/injection, schedule: Q01DX009 (ip), vehicle: saline with Tween-80
[4] = endpoint: mean survival time, dose: 200.0 mg/kg/injection, schedule: Q04DX003 (ip), vehicle: saline with Tween-80
[5] = endpoint: mean survival time, dose: 400.0 mg/kg/injection, schedule: Q01DX009 (ip), vehicle: saline with Tween-80
[6] = endpoint: mean survival time, dose: 400.0 mg/kg/injection, schedule: Q04DX003 (ip), vehicle: saline with Tween-80
[7] = endpoint: mean survival time, dose: 100.0 mg/kg/injection, schedule: Q01DX001 (ip), vehicle: saline with Tween-80
[8] = endpoint: mean survival time, dose: 200.0 mg/kg/injection, schedule: Q01DX001 (ip), vehicle: saline with Tween-80
[9] = endpoint: mean survival time, dose: 400.0 mg/kg/injection, schedule: Q01DX001 (ip), vehicle: saline with Tween-80
[10] = endpoint: mean survival time, dose: 25.0 mg/kg/injection, schedule: Q01DX009 (ip), vehicle: saline with Tween-80
[11] = endpoint: mean survival time, dose: 25.0 mg/kg/injection, schedule: Q01DX009 (ip), vehicle: water
[12] = endpoint: mean survival time, dose: 50.0 mg/kg/injection, schedule: Q01DX009 (ip), vehicle: water
[13] = endpoint: mean survival time, dose: 100.0 mg/kg/injection, schedule: Q01DX009 (ip), vehicle: water

Measured: T/C

O=C1CCC2(CC1C1C=CCC1)OCCO2 (stereo unspecified)
inactive: [1] 91 % of control | [2] 100 % of control | [3] 94 % of control | [4] 102 % of control | [5] 100 % of control | [6] 98 % of control

NNC(=O)Nc1cccnc1
inactive: endpoint: mean survival time, dose: 18.75 mg/kg/injection, schedule: Q01DX009 (ip), vehicle: saline 106 % of control | endpoint: mean survival time, dose: 37.5 mg/kg/injection, schedule: Q01DX009 (ip), vehicle: saline 98 % of control | endpoint: mean survival time, dose: 75.0 mg/kg/injection, schedule: Q01DX009 (ip), vehicle: saline 101 % of control

CCOC(=O)/C(C(C)=N)=C(\C)O
inactive: [7] 100 % of control | [1] 101 % of control | [8] 98 % of control | [3] 104 % of control | [9] 105 % of control

COc1cc(OC)cc(C2=NNc3n[nH]c(=S)n3N2)c1
inactive: [1] 91 % of control | [2] 93 % of control | [3] 93 % of control | [4] 90 % of control | [6] 102 % of control

O=C1C(Cl)=C(Nc2nc3ccccc3s2)C(=O)c2ccccc21
inactive: endpoint: mean survival time, dose: 25.0 mg/kg/injection, schedule: Q01DX001 (ip), vehicle: Klucel (hydroxypropylcellulose) (HPC) 102 % of control | endpoint: mean survival time, dose: 50.0 mg/kg/injection, schedule: Q01DX001 (ip), vehicle: Klucel (hydroxypropylcellulose) (HPC) 96 % of control | endpoint: mean survival time, dose: 100.0 mg/kg/injection, schedule: Q01DX001 (ip), vehicle: Klucel (hydroxypropylcellulose) (HPC) 98 % of control

Cn1c(=O)cc(C=Nc2ccc(O)cc2)c2ccccc21
inactive: [1] 94 % of control | [3] 90 % of control | [5] 97 % of control

[Cl][Pt+2]([Cl])([Cl])[Cl].[NH-]C1CCCCC1.[NH-]C1CCCCC1
inactive: endpoint: mean survival time, dose: 12.5 mg/kg/injection, schedule: Q01DX009 (ip), vehicle: saline with Tween-80 96 % of control | [10] 91 % of control | endpoint: mean survival time, dose: 50.0 mg/kg/injection, schedule: Q01DX009 (ip), vehicle: saline with Tween-80 100 % of control | [1] 89 % of control

O=C1N(C2CCCCC2)CC2C(c3cccnc3)NNC12O (stereo unspecified)
inactive: [7] 97 % of control | [8] 87 % of control

CCOC(OCC)c1cc(-c2cnc(N)nc2N)cc(Cl)c1Cl
inactive: [7] 98 % of control | [8] 97 % of control | [9] 97 % of control

CCCCCCCCN(C)S(=O)(=O)CCCC
inactive: endpoint: mean survival time, dose: 6.25 mg/kg/injection, schedule: Q01DX009 (ip), vehicle: water 103 % of control | endpoint: mean survival time, dose: 12.5 mg/kg/injection, schedule: Q01DX009 (ip), vehicle: water 95 % of control | [11] 106 % of control | [12] 111 % of control | [13] 103 % of control

CC(Cc1ccccc1)NNC(C)Cc1ccccc1 (stereo unspecified)
inactive: endpoint: mean survival time, dose: 75.0 mg/kg/injection, schedule: Q01DX001 (ip), vehicle: saline 98 % of control | endpoint: mean survival time, dose: 150.0 mg/kg/injection, schedule: Q01DX001 (ip), vehicle: saline 102 % of control | endpoint: mean survival time, dose: 300.0 mg/kg/injection, schedule: Q01DX001 (ip), vehicle: saline 97 % of control

CCCOS(=O)(=O)O
inactive: endpoint: mean survival time, dose: 100.0 mg/kg/injection, schedule: Q01DX001 (ip), vehicle: saline 106 % of control | endpoint: mean survival time, dose: 200.0 mg/kg/injection, schedule: Q01DX001 (ip), vehicle: saline 102 % of control | endpoint: mean survival time, dose: 400.0 mg/kg/injection, schedule: Q01DX001 (ip), vehicle: saline 106 % of control

C=C(C)C(=NC(C)(C)C)Nc1ccccc1
inactive: endpoint: median survival time, dose: 6.25 mg/kg/injection, schedule: Q01DX009 (ip), vehicle: saline with Tween-80 105 % of control | endpoint: median survival time, dose: 12.5 mg/kg/injection, schedule: Q01DX009 (ip), vehicle: saline with Tween-80 110 % of control | endpoint: median survival time, dose: 25.0 mg/kg/injection, schedule: Q01DX009 (ip), vehicle: saline with Tween-80 108 % of control | endpoint: median survival time, dose: 50.0 mg/kg/injection, schedule: Q01DX009 (ip), vehicle: saline with Tween-80 108 % of control | endpoint: median survival time, dose: 100.0 mg/kg/injection, schedule: Q01DX009 (ip), vehicle: saline with Tween-80 112 % of control | endpoint: median survival time, dose: 200.0 mg/kg/injection, schedule: Q01DX009 (ip), vehicle: saline with Tween-80 121 % of control

C=CCC1(C(=O)OCC)CCCCC1=O (stereo unspecified)
inactive: [2] 103 % of control | [4] 106 % of control | [6] 110 % of control

O=C(NCc1ccccc1)c1ccc([N+](=O)[O-])cc1
inactive: endpoint: mean survival time, dose: 100.0 mg/kg/injection, schedule: Q04DX002 (ip), vehicle: other 97 % of control | endpoint: mean survival time, dose: 200.0 mg/kg/injection, schedule: Q04DX002 (ip), vehicle: other 101 % of control | endpoint: mean survival time, dose: 400.0 mg/kg/injection, schedule: Q04DX002 (ip), vehicle: other 97 % of control

CCN1CCCC(Nc2nc(Nc3cc(Cl)cc(Cl)c3)nc3ccc(Cl)cc23)C1 (stereo unspecified)
inactive: [10] 103 % of control | [2] 90 % of control

CCOC(=O)Nc1cc(NC(c2ccccc2)c2ccccc2)c([N+](=O)[O-])c(Cl)n1
inactive: endpoint: mean survival time, dose: 100.0 mg/kg/injection, schedule: Q01DX001 (ip), vehicle: carboxymethylcellulose (CMC) 95 % of control | endpoint: mean survival time, dose: 200.0 mg/kg/injection, schedule: Q01DX001 (ip), vehicle: carboxymethylcellulose (CMC) 93 % of control | endpoint: mean survival time, dose: 400.0 mg/kg/injection, schedule: Q01DX001 (ip), vehicle: carboxymethylcellulose (CMC) 91 % of control

CC(=O)O/N=C(\C(c1ccccc1)c1ccccc1)C1c2ccccc2-c2ccccc21
inactive: [7] 87 % of control | [8] 87 % of control | [9] 90 % of control

FC(F)(F)C(F)(F)CI
inactive: [7] 105 % of control | [8] 98 % of control | [9] 94 % of control

CCN(CC)CCCC(C)NS(=O)(=O)c1cccc2c(N(C)C)cccc12 (stereo unspecified)
inactive: [11] 102 % of control | [12] 98 % of control | [13] 96 % of control

CC(=O)NCCN
inactive: endpoint: mean survival time, dose: 50.0 mg/kg/injection, schedule: Q04DX003 (ip), vehicle: saline 101 % of control | endpoint: mean survival time, dose: 100.0 mg/kg/injection, schedule: Q04DX003 (ip), vehicle: saline 95 % of control | endpoint: mean survival time, dose: 200.0 mg/kg/injection, schedule: Q04DX003 (ip), vehicle: saline 97 % of control

Cc1ccc(NC(=O)c2ccccc2)c(C)c1
inactive: [1] 90 % of control | [2] 92 % of control | [3] 86 % of control | [4] 92 % of control | [6] 92 % of control

BrC(Br)(c1ccccc1)C1OCCO1
inactive: endpoint: mean survival time, dose: 50.0 mg/kg/injection, schedule: Q01DX001 (ip), vehicle: saline with Tween-80 107 % of control | endpoint: mean survival time, dose: 50.0 mg/kg/injection, schedule: Q04DX003 (ip), vehicle: saline with Tween-80 100 % of control | [7] 100 % of control | [2] 101 % of control | [8] 102 % of control | [4] 97 % of control

O=C1OC(O)(c2ccc(Cl)cc2)C(Cc2ccccc2)=C1c1ccccc1 (stereo unspecified)
inactive: endpoint: mean survival time, dose: 100.0 mg/kg/injection, schedule: Q04DX002 (ip), vehicle: saline with Tween-80 97 % of control | endpoint: mean survival time, dose: 200.0 mg/kg/injection, schedule: Q04DX002 (ip), vehicle: saline with Tween-80 90 % of control | endpoint: mean survival time, dose: 400.0 mg/kg/injection, schedule: Q04DX002 (ip), vehicle: saline with Tween-80 102 % of control

COc1ccc2c3c1OC1C(=O)C4CC5(c6c(O)ccc(O)c64)C(C2)N(C)CCC315 (stereo unspecified)
inactive: [4] 86 % of control | [6] 86 % of control

COC(=O)C1(C)CCCC2(C)C3CCC(C)(CCO)CC3C(O)CC12 (stereo unspecified)
inactive: endpoint: mean survival time, dose: 100.0 mg/kg/injection, schedule: Q01DX001 (ip), vehicle: saline sonified 102 % of control | [7] 96 % of control | endpoint: mean survival time, dose: 200.0 mg/kg/injection, schedule: Q01DX001 (ip), vehicle: saline sonified 101 % of control | [8] 101 % of control | endpoint: mean survival time, dose: 400.0 mg/kg/injection, schedule: Q01DX001 (ip), vehicle: saline sonified 93 % of control | [9] 105 % of control

CCCCCCCCN(c1ccc(I)cc1)S(=O)(=O)c1ccc(C)cc1
inactive: [2] 94 % of control | [4] 94 % of control

O=C(O)CNC(=O)CCNC(=O)OCc1ccccc1
inactive: [1] 95 % of control | [3] 93 % of control | [5] 93 % of control

NC(N)=Nc1nc2ccccc2[nH]1
inactive: endpoint: mean survival time, dose: 7.0 mg/kg/injection, schedule: Q01DX009 (ip), vehicle: saline 104 % of control | endpoint: mean survival time, dose: 14.0 mg/kg/injection, schedule: Q01DX009 (ip), vehicle: saline 104 % of control | endpoint: mean survival time, dose: 28.0 mg/kg/injection, schedule: Q01DX009 (ip), vehicle: saline 98 % of control

O=C1CCC(Cl)S(=O)(=O)c2ccccc21 (stereo unspecified)
inactive: [7] 97 % of control | [8] 105 % of control | [9] 94 % of control

Cc1c(O)c2c(c(O)c1Cc1cccc(C#N)c1)C(=O)c1ccccc1C2=O
inactive: endpoint: mean survival time, dose: 12.5 mg/kg/injection, schedule: Q01DX009 (ip), vehicle: Klucel (hydroxypropylcellulose) (HPC) 89 % of control | endpoint: mean survival time, dose: 25.0 mg/kg/injection, schedule: Q01DX009 (ip), vehicle: Klucel (hydroxypropylcellulose) (HPC) 90 % of control | endpoint: mean survival time, dose: 50.0 mg/kg/injection, schedule: Q01DX009 (ip), vehicle: Klucel (hydroxypropylcellulose) (HPC) 90 % of control | endpoint: mean survival time, dose: 200.0 mg/kg/injection, schedule: Q01DX009 (ip), vehicle: Klucel (hydroxypropylcellulose) (HPC) 89 % of control
